From US12226424B2, “Target protein degradation compounds, their anti-tumor use, their intermediates and use of intermediates” (ShanghaiTech University, priority 2018, dated 2025)

Test system: CDK4/6 protein
Assay: Western-blot determination of CDK4/6 protein degradation (DC50) in T-47D cells
Type: cell-based, human
Conditions: 24 h drug treatment, read-out: DC50(nM)/T-47D cell line

Compound	DC50
CC(=O)c1c(C)c2cnc(Nc3ccc(N4CCN(C(=O)CCCCSc5cccc6c5C(=O)N(C5CCC(=O)NC5=O)C6=O)CC4)cn3)nc2n(C2CCCC2)c1=O (stereo not drawn) [SIAIS184088, 4-((5-(4-(6-((6-acetyl-8-cyclopentyl-5-methyl-7-oxo-7,8-dihydropyrido[2,3-d]pyrimidin-2-yl)amino)pyridin-3-yl)piperazin-1-yl)-5-oxopentyl)thio)-2-(2,6-dioxopiperidin-3-yl)isoindoline-1,3-dione]	1 to 10 nM
CC(=O)c1c(C)c2cnc(Nc3ccc(N4CCN(C(=O)CCCCCSc5cccc6c5C(=O)N(C5CCC(=O)NC5=O)C6=O)CC4)cn3)nc2n(C2CCCC2)c1=O (stereo not drawn) [SIAIS184089, 4-((6-(4-(6-((6-acetyl-8-cyclopentyl-5-methyl-7-oxo-7,8-dihydropyrido[2,3-d]pyrimidin-2-yl)amino)pyridin-3-yl)piperazin-1-yl)-6-oxohexyl)thio)-2-(2,6-dioxopiperidin-3-yl)isoindoline-1,3-dione]	1 to 10 nM
CC(=O)c1c(C)c2cnc(Nc3ccc(N4CCN(C(=O)CSc5cccc6c5CN(C5CCC(=O)NC5=O)C6=O)CC4)cn3)nc2n(C2CCCC2)c1=O (stereo not drawn) [SIAIS219051, 3-(4-((2-(4-(6-((6-acetyl-8-cyclopentyl-5-methyl-7-oxo-7,8-dihydropyrido[2,3-d]pyrimidin-2-yl)amino)pyridin-3-yl)piperazin-1-yl)-2-oxoethyl)thio)-1-oxoisoindolin-2-yl)piperidine-2,6-dione]	< 1 nM
CC(=O)c1c(C)c2cnc(Nc3ccc(N4CCN(C(=O)CCSc5cccc6c5CN(C5CCC(=O)NC5=O)C6=O)CC4)cn3)nc2n(C2CCCC2)c1=O (stereo not drawn) [SIAIS219052, 3-(4-((3-(4-(6-((6-acetyl-8-cyclopentyl-5-methyl-7-oxo-7,8-dihydropyrido[2,3-d]pyrimidin-2-yl)amino)pyridin-3-yl)piperazin-1-yl)-3-oxopropyl)thio)-1-oxoisoindolin-2-yl)piperidine-2,6-dione]	< 1 nM
CC(=O)c1c(C)c2cnc(Nc3ccc(N4CCN(C(=O)CCCSc5cccc6c5CN(C5CCC(=O)NC5=O)C6=O)CC4)cn3)nc2n(C2CCCC2)c1=O (stereo not drawn) [SIAIS219053, 3-(4-((4-(4-(6-((6-acetyl-8-cyclopentyl-5-methyl-7-oxo-7,8-dihydropyrido[2,3-d]pyrimidin-2-yl)amino)pyridin-3-yl)piperazin-1-yl)-4-oxobutyl)thio)-1-oxoisoindolin-2-yl)piperidine-2,6-dione]	< 1 nM
CC(=O)c1c(C)c2cnc(Nc3ccc(N4CCN(C(=O)CCCCCSc5cccc6c5CN(C5CCC(=O)NC5=O)C6=O)CC4)cn3)nc2n(C2CCCC2)c1=O (stereo not drawn) [SIAIS219054, 3-(4-((6-(4-(6-((6-acetyl-8-cyclopentyl-5-methyl-7-oxo-7,8-dihydropyrido[2,3-d]pyrimidin-2-yl)amino)pyridin-3-yl)piperazin-1-yl)-6-oxohexyl)thio)-1-oxoisoindolin-2-yl)piperidine-2,6-dione]	< 1 nM
CC(=O)c1c(C)c2cnc(Nc3ccc(N4CCN(C(=O)CCCCCCSc5cccc6c5CN(C5CCC(=O)NC5=O)C6=O)CC4)cn3)nc2n(C2CCCC2)c1=O (stereo not drawn) [SIAIS219055, 3-(4-((7-(4-(6-((6-acetyl-8-cyclopentyl-5-methyl-7-oxo-7,8-dihydropyrido[2,3-d]pyrimidin-2-yl)amino)pyridin-3-yl)piperazin-1-yl)-7-oxoheptyl)thio)-1-oxoisoindolin-2-yl)piperidine-2,6-dione]	< 1 nM
CC(=O)c1c(C)c2cnc(Nc3ccc(N4CCN(C(=O)COCCOCCSc5cccc6c5C(=O)N(C5CCC(=O)NC5=O)C6=O)CC4)cn3)nc2n(C2CCCC2)c1=O (stereo not drawn) [SIAIS219059, 4-((2-(2-(2-(4-(6-((6-acetyl-8-cyclopentyl-5-methyl-7-oxo-7,8-dihydropyrido[2,3-d]pyrimidin-2-yl)amino)pyridin-3-yl)piperazin-1-yl)-2-oxoethoxy)ethoxy)ethyl)thio)-2-(2,6-dioxopiperidin-3-yl)isoindoline-1,3-dione]	10 to 50 nM
CC(=O)c1c(C)c2cnc(Nc3ccc(N4CCN(C(=O)COCCOCCOCCSc5cccc6c5C(=O)N(C5CCC(=O)NC5=O)C6=O)CC4)cn3)nc2n(C2CCCC2)c1=O (stereo not drawn) [SIAIS219060, 4-((2-(2-(2-(2-(4-(6-((6-acetyl-8-cyclopentyl-5-methyl-7-oxo-7,8-dihydropyrido[2,3-d]pyrimidin-2-yl)amino)pyridin-3-yl)piperazin-1-yl)-2-oxoethoxy)ethoxy)ethoxy)ethyl)thio)-2-(2,6-dioxopiperidin-3-yl)isoindoline-1,3-dione]	1 to 10 nM
CC(=O)c1c(C)c2cnc(Nc3ccc(N4CCN(C(=O)COCCOCCOCCOCCSc5cccc6c5C(=O)N(C5CCC(=O)NC5=O)C6=O)CC4)cn3)nc2n(C2CCCC2)c1=O (stereo not drawn) [SIAIS219061, 4-((14-(4-(6-((6-acetyl-8-cyclopentyl-5-methyl-7-oxo-7,8-dihydropyrido[2,3-d]pyrimidin-2-yl)amino)pyridin-3-yl)piperazin-1-yl)-14-oxo-3,6,9,12-tetraoxatetradecyl)thio)-2-(2,6-dioxopiperidin-3-yl)isoindoline-1,3-dione]	1 to 10 nM
CC(=O)c1c(C)c2cnc(Nc3ccc(N4CCN(C(=O)COCCOCCOCCOCCOCCSc5cccc6c5C(=O)N(C5CCC(=O)NC5=O)C6=O)CC4)cn3)nc2n(C2CCCC2)c1=O (stereo not drawn) [SIAIS219062, 4-((17-(4-(6-((6-acetyl-8-cyclopentyl-5-methyl-7-oxo-7,8-dihydropyrido[2,3-d]pyrimidin-2-yl)amino)pyridin-3-yl)piperazin-1-yl)-17-oxo-3,6,9,12,15-pentaoxaheptadecyl)thio)-2-(2,6-dioxopiperidin-3-yl)isoindoline-1,3-dione]	1 to 10 nM
CC(=O)c1c(C)c2cnc(Nc3ccc(N4CCN(CCSc5cccc6c5C(=O)N(C5CCC(=O)NC5=O)C6=O)CC4)cn3)nc2n(C2CCCC2)c1=O (stereo not drawn) [SIAIS219063, 4-((2-(4-(6-((6-acetyl-8-cyclopentyl-5-methyl-7-oxo-7,8-dihydropyrido[2,3-d]pyrimidin-2-yl)amino)pyridin-3-yl)piperazin-1-yl)ethyl)thio)-2-(2,6-dioxopiperidin-3-yl)isoindoline-1,3-dione]	< 1 nM
CN(C)C(=O)c1cc2cnc(Nc3ccc(N4CCN(C(=O)CSc5cccc6c5CN(C5CCC(=O)NC5=O)C6=O)CC4)cn3)nc2n1C1CCCC1 (stereo not drawn) [SIAIS219086, 7-cyclopentyl-2-((5-(4-(2-((2-(2,6-dioxopiperidin-3-yl)-1-oxoisoindolin-4-yl)thio)acetyl)piperazin-1-yl)pyridin-2-yl)amino)-N,N-dimethyl-7H-pyrrolo[2,3-d]pyrimidine-6-carboxamide]	< 1 nM
CN(C)C(=O)c1cc2cnc(Nc3ccc(N4CCN(C(=O)CCSc5cccc6c5CN(C5CCC(=O)NC5=O)C6=O)CC4)cn3)nc2n1C1CCCC1 (stereo not drawn) [SIAIS219087, 7-cyclopentyl-2-((5-(4-(3-((2-(2,6-dioxopiperidin-3-yl)-1-oxoisoindolin-4-yl)thio)propanoyl)piperazin-1-yl)pyridin-2-yl)amino)-N,N-dimethyl-7H-pyrrolo[2,3-d]pyrimidine-6-carboxamide]	< 1 nM
CN(C)C(=O)c1cc2cnc(Nc3ccc(N4CCN(C(=O)CCCSc5cccc6c5CN(C5CCC(=O)NC5=O)C6=O)CC4)cn3)nc2n1C1CCCC1 (stereo not drawn) [SIAIS219088, 7-cyclopentyl-2-((5-(4-(4-((2-(2,6-dioxopiperidin-3-yl)-1-oxoisoindolin-4-yl)thio)butanoyl)piperazin-1-yl)pyridin-2-yl)amino)-N,N-dimethyl-7H-pyrrolo[2,3-d]pyrimidine-6-carboxamide]	1 to 10 nM
CN(C)C(=O)c1cc2cnc(Nc3ccc(N4CCN(C(=O)CCCCSc5cccc6c5CN(C5CCC(=O)NC5=O)C6=O)CC4)cn3)nc2n1C1CCCC1 (stereo not drawn) [SIAIS219089, 7-cyclopentyl-2-((5-(4-(5-((2-(2,6-dioxopiperidin-3-yl)-1-oxoisoindolin-4-yl)thio)pentanoyl)piperazin-1-yl)pyridin-2-yl)amino)-N,N-dimethyl-7H-pyrrolo[2,3-d]pyrimidine-6-carboxamide]	1 to 10 nM
CN(C)C(=O)c1cc2cnc(Nc3ccc(N4CCN(C(=O)CCCCCSc5cccc6c5CN(C5CCC(=O)NC5=O)C6=O)CC4)cn3)nc2n1C1CCCC1 (stereo not drawn) [SIAIS219090, 7-cyclopentyl-2-((5-(4-(6-((2-(2,6-dioxopiperidin-3-yl)-1-oxoisoindolin-4-yl)thio)hexanoyl)piperazin-1-yl)pyridin-2-yl)amino)-N,N-dimethyl-7H-pyrrolo[2,3-d]pyrimidine-6-carboxamide]	0.2 to 1 nM
CN(C)C(=O)c1cc2cnc(Nc3ccc(N4CCN(C(=O)CCCCCCSc5cccc6c5CN(C5CCC(=O)NC5=O)C6=O)CC4)cn3)nc2n1C1CCCC1 (stereo not drawn) [SIAIS219091, 7-cyclopentyl-2-((5-(4-(7-((2-(2,6-dioxopiperidin-3-yl)-1-oxoisoindolin-4-yl)thio)heptanoyl)piperazin-1-yl)pyridin-2-yl)amino)-N,N-dimethyl-7H-pyrrolo[2,3-d]pyrimidine-6-carboxamide]	< 1 nM
CN(C)C(=O)c1cc2cnc(Nc3ccc(N4CCN(C(=O)CSc5cccc6c5C(=O)N(C5CCC(=O)NC5=O)C6=O)CC4)cn3)nc2n1C1CCCC1 (stereo not drawn) [SIAIS219100, 7-cyclopentyl-2-((5-(4-(2-((2-(2,6-dioxopiperidin-3-yl)-1,3-dioxoisoindolin-4-yl)thio)acetyl)piperazin-1-yl)pyridin-2-yl)amino)-N,N-dimethyl-7H-pyrrolo[2,3-d]pyrimidine-6-carboxamide]	< 0.04 nM
CN(C)C(=O)c1cc2cnc(Nc3ccc(N4CCN(C(=O)CCSc5cccc6c5C(=O)N(C5CCC(=O)NC5=O)C6=O)CC4)cn3)nc2n1C1CCCC1 (stereo not drawn) [SIAIS219101, 7-cyclopentyl-2-((5-(4-(3-((2-(2,6-dioxopiperidin-3-yl)-1,3-dioxoisoindolin-4-yl)thio)propanoyl)piperazin-1-yl)pyridin-2-yl)amino)-N,N-dimethyl-7H-pyrrolo[2,3-d]pyrimidine-6-carboxamide]	< 100 nM
CN(C)C(=O)c1cc2cnc(Nc3ccc(N4CCN(C(=O)CCCSc5cccc6c5C(=O)N(C5CCC(=O)NC5=O)C6=O)CC4)cn3)nc2n1C1CCCC1 (stereo not drawn) [SIAIS219102, 7-cyclopentyl-2-((5-(4-(4-((2-(2,6-dioxopiperidin-3-yl)-1,3-dioxoisoindolin-4-yl)thio)butanoyl)piperazin-1-yl)pyridin-2-yl)amino)-N,N-dimethyl-7H-pyrrolo[2,3-d]pyrimidine-6-carboxamide]	1 to 10 nM
